Measurements: US6872401B2, “Cosmetic/dermatological compositions comprising a tetrahydrocurcuminoid and an amide oil” (L'Oreal, priority 2002, dated 2005)

Assay: Test of solubility: mixture of tetrahydrocurcuminoids in oils, microscopic examination
Format: physicochemical
Conditions: 1 g Tetrahydrocurcuminoids CG adjusted to 10 g with the oil, 15 minutes at 80° C., cooled 24 hours at room temperature
Procedure: Two amide oils in accordance with the invention are compared to 13 conventional oils used in cosmetics. Their solubilizing power is studied on a mixture of tetrahydrocurcuminoids of formula (I): i.e., the commercial product Tetrahydrocurcuminoids CG from Sabinsa as defined above.
1 g of a mixture of tetrahydrocurcuminoids is weighed and adjusted to 10 g with the oil studied. The mixture is heated for 15 minutes on a waterbath at 80° C. It is allowed to cool for 24 hours at room temperature and a microscopic examination is performed.

For CCCCN(CCC(=O)OCC)C(C)=O [N-acetyl-N-butylaminopropionate], the “SOLUBILITY AFTER 24 HOURS AT ROOM TEMPERATURE” value was “completely dissolve the mixture of tetrahydrocurcuminoids”.
